Laboratory results reported in patent US9493448B2, “Cycloalkane derivatives” (Daiichi Sankyo Company, Limited, priority 2012, dated 2016).

What was measured:
hNav 1.7 = hNav 1.7 (Homo sapiens (Human), UniProt Q15858); assay: Electrophysiological evaluation, automated patch clamp IonWorks Quattro (Population Patch Clamp mode); type: cell-based; settings: HEK293A cells stably expressing hNav 1.7/β1/β2; response to second depolarization pulse, pre-pulse potential set to V1/2; read-out: hNav1.7 IC50
[1] = test system: mice and rats affected by thermal hyperalgesia; assay: Thermal hyperalgesia assay; type: in vivo; settings: oral administration, constant dose, against the vehicle treatment group; latency to escape behaviors after thermal stimulation of hind paw;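 also: measurement times set by the study director and not disclosed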

Chain of hNav 1.7 (Q15858 whole entry): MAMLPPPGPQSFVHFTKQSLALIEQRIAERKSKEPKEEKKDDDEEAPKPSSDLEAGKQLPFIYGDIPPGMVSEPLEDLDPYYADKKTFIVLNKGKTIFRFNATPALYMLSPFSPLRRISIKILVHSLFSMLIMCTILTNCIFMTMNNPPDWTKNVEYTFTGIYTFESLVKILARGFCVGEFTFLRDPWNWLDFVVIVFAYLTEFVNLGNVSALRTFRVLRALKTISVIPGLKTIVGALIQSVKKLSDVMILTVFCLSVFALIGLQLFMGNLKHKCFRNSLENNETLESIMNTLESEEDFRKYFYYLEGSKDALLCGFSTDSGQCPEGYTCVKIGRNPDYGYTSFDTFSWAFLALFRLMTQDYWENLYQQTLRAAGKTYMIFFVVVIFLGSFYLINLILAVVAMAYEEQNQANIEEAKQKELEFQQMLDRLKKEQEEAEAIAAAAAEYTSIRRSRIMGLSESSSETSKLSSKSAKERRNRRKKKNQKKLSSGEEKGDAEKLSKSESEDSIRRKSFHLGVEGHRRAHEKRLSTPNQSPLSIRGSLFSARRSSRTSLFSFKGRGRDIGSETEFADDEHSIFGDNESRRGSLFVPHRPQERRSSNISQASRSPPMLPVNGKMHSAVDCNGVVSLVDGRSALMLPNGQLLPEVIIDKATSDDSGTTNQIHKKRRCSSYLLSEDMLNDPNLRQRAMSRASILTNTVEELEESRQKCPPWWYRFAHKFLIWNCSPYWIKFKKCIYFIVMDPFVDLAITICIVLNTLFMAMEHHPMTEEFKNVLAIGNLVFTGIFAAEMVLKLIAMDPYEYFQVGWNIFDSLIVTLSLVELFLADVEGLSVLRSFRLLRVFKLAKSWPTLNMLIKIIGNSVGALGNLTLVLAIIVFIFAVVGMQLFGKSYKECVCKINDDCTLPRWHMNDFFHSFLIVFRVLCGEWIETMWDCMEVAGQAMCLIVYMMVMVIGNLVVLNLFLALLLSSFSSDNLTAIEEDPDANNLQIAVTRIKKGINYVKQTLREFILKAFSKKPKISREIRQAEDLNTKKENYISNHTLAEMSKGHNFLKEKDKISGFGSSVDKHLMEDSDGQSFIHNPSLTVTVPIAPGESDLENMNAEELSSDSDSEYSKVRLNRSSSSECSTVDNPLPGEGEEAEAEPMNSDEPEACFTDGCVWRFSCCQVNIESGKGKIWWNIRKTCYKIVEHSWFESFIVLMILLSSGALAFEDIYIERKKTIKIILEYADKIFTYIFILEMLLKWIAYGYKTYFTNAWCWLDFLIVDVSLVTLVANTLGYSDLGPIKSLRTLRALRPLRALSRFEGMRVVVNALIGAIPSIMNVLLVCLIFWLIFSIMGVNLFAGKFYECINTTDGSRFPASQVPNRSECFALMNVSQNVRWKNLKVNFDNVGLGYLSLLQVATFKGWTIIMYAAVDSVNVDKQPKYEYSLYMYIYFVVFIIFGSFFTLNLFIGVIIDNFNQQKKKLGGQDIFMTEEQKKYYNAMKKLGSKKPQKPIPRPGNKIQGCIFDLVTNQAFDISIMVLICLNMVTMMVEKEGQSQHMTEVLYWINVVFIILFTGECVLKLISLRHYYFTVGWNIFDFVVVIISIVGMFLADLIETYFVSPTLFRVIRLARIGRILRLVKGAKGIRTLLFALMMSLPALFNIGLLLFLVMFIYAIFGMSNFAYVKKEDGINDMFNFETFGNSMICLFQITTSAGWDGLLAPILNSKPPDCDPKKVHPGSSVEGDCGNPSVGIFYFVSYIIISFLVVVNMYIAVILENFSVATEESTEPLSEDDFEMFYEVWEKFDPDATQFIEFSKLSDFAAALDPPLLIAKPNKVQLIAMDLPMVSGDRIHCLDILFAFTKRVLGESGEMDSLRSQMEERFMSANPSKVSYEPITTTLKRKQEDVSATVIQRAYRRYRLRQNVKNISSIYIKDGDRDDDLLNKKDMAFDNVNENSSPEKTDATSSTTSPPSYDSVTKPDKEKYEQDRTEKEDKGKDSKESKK
Chain of hNav 1.7 (Q07699 19-218 partner): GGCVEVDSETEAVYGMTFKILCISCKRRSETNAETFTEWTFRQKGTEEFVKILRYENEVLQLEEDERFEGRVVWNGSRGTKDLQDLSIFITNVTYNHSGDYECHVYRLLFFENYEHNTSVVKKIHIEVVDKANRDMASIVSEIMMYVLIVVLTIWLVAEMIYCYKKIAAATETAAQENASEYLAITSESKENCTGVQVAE
Chain of hNav 1.7 (O60939 30-215 partner): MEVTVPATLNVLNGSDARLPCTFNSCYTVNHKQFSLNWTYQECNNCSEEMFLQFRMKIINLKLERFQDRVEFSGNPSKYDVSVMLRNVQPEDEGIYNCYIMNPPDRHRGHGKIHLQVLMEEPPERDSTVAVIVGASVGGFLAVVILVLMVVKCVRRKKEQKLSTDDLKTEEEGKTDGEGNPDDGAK

Row | IC50 (hNav 1.7) [nM] | SMILES | Ratio of improving pain score (%) [1]
1 | 89 | Cc1cc(S(=O)(=O)Nc2ccncn2)c(F)cc1O[C@H]1CC(F)(F)CC[C@@H]1c1ccnn1C (relative stereo) [Example 90, 4-{[(1S*,2R*)-5,5-Difluoro-2-(1-methyl-1H-pyrazol-5-yl)cyclohexyl]oxy}-2-fluoro-5-methyl-N-(pyrimidin-4-yl)benzenesulfonamide] | B (“B” when the rate was 31 to 60%)
2 | 220 | Cn1nccc1[C@H]1CCC(F)(F)C[C@@H]1Oc1ccc(S(=O)(=O)Nc2ccncn2)c(F)c1F (relative stereo) [Example 105, 4-{[(1S*,2R*)-5,5-Difluoro-2-(1-methyl-1H-pyrazol-5-yl)cyclohexyl]oxy}-2,3-difluoro-N-(pyrimidin-4-yl)benzenesulfonamide] | A (“A” when the rate was 61 to 100%)
3 | 70 | Cn1nccc1[C@H]1CCCC[C@@H]1Oc1ccc(S(=O)(=O)Nc2ccncn2)c(F)c1Cl (relative stereo) [Example 79, 3-Chloro-2-fluoro-4-{[(1S*,2R*)-2-(1-methyl-1H-pyrazol-5-yl)cyclohexyl]oxy}-N-(pyrimidin-4-yl)benzenesulfonamide] | C (“C” when the rate was 0 to 30%)
4 | 91 | Cn1nccc1[C@H]1CCCCC[C@@H]1Oc1cc(F)c(S(=O)(=O)Nc2ccncn2)cc1F (relative stereo) [Example 42, 2,5-Difluoro-4-{[(1S*,2R*)-2-(1-methyl-1H-pyrazol-5-yl)cycloheptyl]oxy}-N-(pyrimidin-4-yl)benzenesulfonamide] | C (“C” when the rate was 0 to 30%)
5 | 43 | Cn1nccc1[C@H]1CC(C)(C)CC[C@@H]1Oc1cc(F)c(S(=O)(=O)Nc2ccncn2)cc1F (relative stereo) [Example 67, 4-{[(1S*,2R*)-4,4-Dimethyl-2-(1-methyl-1H-pyrazol-5-yl)cyclohexyl]oxy}-2,5-difluoro-N-(pyrimidin-4-yl)benzenesulfonamide] | C (“C” when the rate was 0 to 30%)
6 | 190 | CCn1nccc1[C@H]1CCCC[C@@H]1Oc1ccc(S(=O)(=O)Nc2ccncn2)c(F)c1 (relative stereo) [Example 45, 4-{[(1S*,2R*)-2-(1-Ethyl-1H-pyrazol-5-yl)cyclohexyl]oxy}-2-fluoro-N-(pyrimidin-4-yl)benzenesulfonamide] | C (“C” when the rate was 0 to 30%)
7 | 150 | Nc1n[nH]cc1[C@H]1CCCC[C@@H]1Oc1cc(F)c(S(=O)(=O)Nc2ccncn2)cc1Cl (relative stereo) [Example 71, 4-{[(1S*,2R*)-2-(3-Amino-1H-pyrazol-4-yl)cyclohexyl]oxy}-5-chloro-2-fluoro-N-(pyrimidin-4-yl)benzenesulfonamide] | A (“A” when the rate was 61 to 100%)
8 | 46 | CCn1nccc1[C@H]1CCCC[C@@H]1Oc1cc(F)c(S(=O)(=O)Nc2ccncn2)cc1F (relative stereo) [Example 28, 4-{[(1S*,2R*)-2-(1-Ethyl-1H-pyrazol-5-yl)cyclohexyl]oxy}-2,5-difluoro-N-(pyrimidin-4-yl)benzenesulfonamide] | C (“C” when the rate was 0 to 30%)
9 | 56 | Nc1nnccc1[C@H]1CCCC[C@@H]1Oc1cc(F)c(S(=O)(=O)Nc2ccncn2)cc1F (relative stereo) [Example 82, 4-{[(1S*,2R*)-2-(3-Aminopyridazin-4-yl)cyclohexyl]oxy}-2,5-difluoro-N-(pyrimidin-4-yl)benzenesulfonamide] | B (“B” when the rate was 31 to 60%)
10 | 31 | CCn1nccc1[C@H]1CCCC[C@@H]1Oc1cc(F)c(S(=O)(=O)Nc2ccncn2)c(F)c1 (relative stereo) [Example 59, 4-{[(1S*,2R*)-2-(1-Ethyl-1H-pyrazol-5-yl)cyclohexyl]oxy}-2,6-difluoro-N-(pyrimidin-4-yl)benzenesulfonamide] | C (“C” when the rate was 0 to 30%)
11 | 86 | Cc1cc(S(=O)(=O)Nc2ccncn2)c(F)cc1O[C@H]1CCCC[C@@H]1c1c[nH]nc1N (relative stereo) [Example 68, 4-{[(1S*,2R*)-2-(3-Amino-1H-pyrazol-4-yl)cyclohexyl]oxy}-2-fluoro-5-methyl-N-(pyrimidin-4-yl)benzenesulfonamide] | B (“B” when the rate was 31 to 60%)
12 | 99 | Nc1cc([C@H]2CCCC[C@@H]2Oc2cc(F)c(S(=O)(=O)Nc3ccncn3)cc2F)ccn1 (relative stereo) [Example 35, 4-{[(1S*,2R*)-2-(2-Aminopyridin-4-yl)cyclohexyl]oxy}-2,5-difluoro-N-(pyrimidin-4-yl)benzenesulfonamide] | B (“B” when the rate was 31 to 60%)
13 | 50 | Cn1nccc1[C@H]1CCC(F)(F)C[C@@H]1Oc1cc(F)c(S(=O)(=O)Nc2ccncn2)c(F)c1 (relative stereo) [Example 109, 4-{[(1S*,2R*)-5,5-Difluoro-2-(1-methyl-1H-pyrazol-5-yl)cyclohexyl]oxy}-2,6-difluoro-N-(pyrimidin-4-yl)benzenesulfonamide] | B (“B” when the rate was 31 to 60%)
14 | 250 | Cn1nccc1[C@H]1CCCC[C@@H]1Oc1ccc(S(=O)(=O)Nc2ccncn2)cc1C#N (relative stereo) [Example 56, 3-Cyano-4-{[(1S*,2R*)-2-(1-methyl-1H-pyrazol-5-yl)cyclohexyl]oxy}-N-(pyrimidin-4-yl)benzenesulfonamide] | B (“B” when the rate was 31 to 60%)
15 | 34 | O=S(=O)(Nc1ccncn1)c1cc(Cl)c(O[C@H]2CCC[C@@H]2c2ccn[nH]2)cc1F (relative stereo) [Example 140, 5-Chloro-2-fluoro-4-{[(1S*,2R*)-2-(1H-pyrazol-5-yl)cyclopentyl]oxy}-N-(pyrimidin-4-yl)benzenesulfonamide] | B (“B” when the rate was 31 to 60%)

Further lines, the compound ahead of its results:

Row | SMILES | IC50 (hNav 1.7) [nM] | Ratio of improving pain score (%) [1]
16 | Cc1c(O[C@H]2CC(F)(F)CC[C@@H]2c2ccnn2C)ccc(S(=O)(=O)Nc2ccncn2)c1F (relative stereo) [Example 84, 4-{[(1S*,2R*)-5,5-Difluoro-2-(1-methyl-1H-pyrazol-5-yl)cyclohexyl]oxy}-2-fluoro-3-methyl-N-(pyrimidin-4-yl)benzenesulfonamide] | 36 | B (“B” when the rate was 31 to 60%)
17 | Nc1n[nH]cc1[C@H]1CCCC[C@@H]1Oc1cc(F)c(S(=O)(=O)Nc2cscn2)c(F)c1 (relative stereo) [Example 116, 4-{[(1S*,2R*)-2-(3-Amino-1H-pyrazol-4-yl)cyclohexyl]oxy}-2,6-difluoro-N-(1,3-thiazol-4-yl)benzenesulfonamide] | 170 | B (“B” when the rate was 31 to 60%)
18 | Cc1cc(S(=O)(=O)Nc2ccncn2)c(F)cc1O[C@H]1CCC[C@@H]1c1cn[nH]c1 (relative stereo) [Example 101, 2-Fluoro-5-methyl-4-{[(1S*,2R*)-2-(1H-pyrazol-4-yl)cyclopentyl]oxy}-N-(pyrimidin-4-yl)benzenesulfonamide] | 180 | B (“B” when the rate was 31 to 60%)
19 | O=S(=O)(Nc1ccncn1)c1c(F)cc(O[C@H]2CCCC[C@@H]2c2cn[nH]c2)cc1F [Example 171, 2,6-Difluoro-4-{[(1S,2R)-2-(1H-pyrazol-4-yl)cyclohexyl]oxy}-N-(pyrimidin-4-yl)benzenesulfonamide] | 43 | B (“B” when the rate was 31 to 60%)
20 | O=S(=O)(Nc1ccncn1)c1c(F)cc(O[C@H]2CCCC[C@@H]2c2cn[nH]c2)cc1F (relative stereo) [Example 94, 2,6-Difluoro-4-{[(1S*,2R*)-2-(1H-pyrazol-4-yl)cyclohexyl]oxy}-N-(pyrimidin-4-yl)benzenesulfonamide] | 120 | A (“A” when the rate was 61 to 100%)
21 | O=S(=O)(Nc1ccncn1)c1ccc(O[C@H]2CC(F)(F)CC[C@@H]2c2cn[nH]c2)cc1F (relative stereo) [Example 147, 4-{[(1S*,2R*)-5,5-Difluoro-2-(1H-pyrazol-4-yl)cyclohexyl]oxy}-2-fluoro-N-(pyrimidin-4-yl)benzenesulfonamide] | 600 | C (“C” when the rate was 0 to 30%)
22 | O=S(=O)(Nc1ccncn1)c1ccc(O[C@H]2CCCC[C@@H]2c2cn[nH]c2)c(F)c1F (relative stereo) [Example 83, 2,3-Difluoro-4-{[(1S*,2R*)-2-(1H-pyrazol-4-yl)cyclohexyl]oxy}-N-(pyrimidin-4-yl)benzenesulfonamide] | 650 | B (“B” when the rate was 31 to 60%)
23 | O=S(=O)(Nc1ccncn1)c1c(F)cc(O[C@H]2CCC[C@@H]2c2ccn[nH]2)cc1F (relative stereo) [Example 139, 2,6-Difluoro-4-{[(1S*,2R*)-2-(1H-pyrazol-5-yl)cyclopentyl]oxy}-N-(pyrimidin-4-yl)benzenesulfonamide] | 35 | C (“C” when the rate was 0 to 30%)
24 | Cc1c(O[C@H]2CCCC[C@@H]2c2c[nH]nc2N)ccc(S(=O)(=O)Nc2ccncn2)c1F (relative stereo) [Example 73, 4-{[(1S*,2R*)-2-(3-Amino-1H-pyrazol-4-yl)cyclohexyl]oxy}-2-fluoro-3-methyl-N-(pyrimidin-4-yl)benzenesulfonamide] | 100 | A (“A” when the rate was 61 to 100%)
25 | Cn1nccc1[C@H]1CC(F)(F)C[C@@H]1Oc1ccc(S(=O)(=O)Nc2ccncn2)c(F)c1 (relative stereo) [Example 136, 4-{[(1S*,2R*)-4,4-Difluoro-2-(1-methyl-1H-pyrazol-5-yl)cyclopentyl]oxy}-2-fluoro-N-(pyrimidin-4-yl)benzenesulfonamide] | 290 | B (“B” when the rate was 31 to 60%)
